Measurements published in US9546129B2, “DTPA prodrugs, compositions thereof, and methods of using the same” (priority 2012, dated 2017).

Tested on: Escherichia coli (E. coli) strain WP2uvrA
Test: Bacterial Reverse Mutation Assay (E. coli)
Format: cell-based
Details: for Dose level with reductions in mean numbers of revertant colonies (toxicity): WP2uvrA
Protocol: The objective of this study was to evaluate C2E2 for its ability to induce reverse mutations at the histidine locus in Salmonella typhimurium tester strains TA98, TA100, TA1535, and TA1537, and at the tryptophan locus of Escherichia coli (E. coli) strain WP2uvrA in the presence or absence of an exogenous mammalian metabolic activation system (S9).
C2E2 was evaluated in an initial mutagenicity assay in all five tester strains at dose levels of 5.00, 16.0, 50.0, 160, 500, 1600, and 5000 μg/plate with and without S9. C2E2 was from Lot 050 obtained using Method 2. C2E2 was prepared in Cell Culture Grade Water vehicle and formed a transparent colorless solution. […] The reductions in the numbers of revertant colonies and the enhanced background lawn growth are indicative of C2E2 treatment-related toxicity. With exception to the enhanced background lawn in TA1537 without S9, all other background lawns in all strains, with and without S9, were normal indicating there was appropriate bacterial growth during treatment to express a mutagenic event. There were no relevant increases in the numbers of revertant colonies observed at any dose level with any strain in the absence or presence of S9 metabolic activation.

Compound: CCOC(=O)CN(CCN(CCN(CC(=O)O)CC(=O)OCC)CC(=O)O)CC(=O)O [C2E2, 6,9-bis(carboxymethyl)-3-(2-ethoxy-2-oxoethyl)-11-oxo-12-oxa-3,6,9-triazatetradecan-1-oic acid]
- Dose level with reductions in mean numbers of revertant colonies (toxicity) (with S9): ≥ 500 μg/plate
- Dose level with reductions in mean numbers of revertant colonies (toxicity) (without S9): 5000 μg/plate
- Mutagenicity (reverse mutations at the tryptophan locus) (up to 5000 μg/plate, with and without S9): negative
